Where two headings read alike, the source gives them in different places.
Key:
human tumor xenografts = conditions: mouse, in vivo; cited from earlier work
PI3K alpha = molecular target: T1, PI3K alpha (Homo sapiens, UniProt P42336); experiment: P110 Alpha TR-FRET Assay (PI3K alpha kinase assay, HTRF Transcreener ADP Assay); format: biochemical; conditions: PI3K (WT)
T1 construct: purchased Millipore Upstate
In short: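 HTRF Transcreener ADP read-out of ADP formed by PI3K (50 ng enzyme) in 50 mM HEPES pH 7.5, 5 mM MgCl2, 1 mM DTT, 30 μM Na3VO4. Compound preincubated with enzyme 20 min; reaction started with 10 μM ATP and 5 μM PIP2, run 20 min, then ADP-d2/anti-ADP cryptate detection for 1 h.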

[1] = Pharmacokinetic study, oral dosing, plasma concentration by LC-MS/MS; format: in vivo; conditions: female swiss mice, fasted overnight, oral 3 mg/kg in PEG 400, plasma
Experimental: For pharmacokinetic study female swiss mice were used. The swiss mice weighing 25-30 g, fasted overnight, were orally dosed at 3 mg/kg body weight of compound in PEG 400. Blood samples (40 μl) were collected from each mouse by retro-orbital bleeding at 0, 0.16, 0.5, 1, 2, 4, 6 and 8 h after dosing into the tubes containing heparin as an anticoagulant. The samples were stored in ice and within 1 h after collection samples were centrifuged at 10000 RPM at 4° C. Plasma was collected and stored at −80° C. until analyis. The concentration of compounds in plasma were determined by liquid chromatography-tandem mass spectrometry (LC-MS/MS).
The protein precipitation method was used to extract the compounds. Acetonitrile was added to plasma, vortexed and centrifuged at 10000 RPM at 4° C. The supenatent was collected and injected onto the column. A CTC HTC PAL auto sampler (LEAP Technologies) linked to a Shimadzu SCL-10A VP HTC controller with LC-10AD pumps (Shimadzu), coupled with a Sciex API 3000 triple quadrupole mass spectrometer were used for the LC-MS/MS analysis. Some compounds as per the present invention are represented in the table below, were tested and their PK values are reported in Table 2.

T1 sequence (P42336 whole entry): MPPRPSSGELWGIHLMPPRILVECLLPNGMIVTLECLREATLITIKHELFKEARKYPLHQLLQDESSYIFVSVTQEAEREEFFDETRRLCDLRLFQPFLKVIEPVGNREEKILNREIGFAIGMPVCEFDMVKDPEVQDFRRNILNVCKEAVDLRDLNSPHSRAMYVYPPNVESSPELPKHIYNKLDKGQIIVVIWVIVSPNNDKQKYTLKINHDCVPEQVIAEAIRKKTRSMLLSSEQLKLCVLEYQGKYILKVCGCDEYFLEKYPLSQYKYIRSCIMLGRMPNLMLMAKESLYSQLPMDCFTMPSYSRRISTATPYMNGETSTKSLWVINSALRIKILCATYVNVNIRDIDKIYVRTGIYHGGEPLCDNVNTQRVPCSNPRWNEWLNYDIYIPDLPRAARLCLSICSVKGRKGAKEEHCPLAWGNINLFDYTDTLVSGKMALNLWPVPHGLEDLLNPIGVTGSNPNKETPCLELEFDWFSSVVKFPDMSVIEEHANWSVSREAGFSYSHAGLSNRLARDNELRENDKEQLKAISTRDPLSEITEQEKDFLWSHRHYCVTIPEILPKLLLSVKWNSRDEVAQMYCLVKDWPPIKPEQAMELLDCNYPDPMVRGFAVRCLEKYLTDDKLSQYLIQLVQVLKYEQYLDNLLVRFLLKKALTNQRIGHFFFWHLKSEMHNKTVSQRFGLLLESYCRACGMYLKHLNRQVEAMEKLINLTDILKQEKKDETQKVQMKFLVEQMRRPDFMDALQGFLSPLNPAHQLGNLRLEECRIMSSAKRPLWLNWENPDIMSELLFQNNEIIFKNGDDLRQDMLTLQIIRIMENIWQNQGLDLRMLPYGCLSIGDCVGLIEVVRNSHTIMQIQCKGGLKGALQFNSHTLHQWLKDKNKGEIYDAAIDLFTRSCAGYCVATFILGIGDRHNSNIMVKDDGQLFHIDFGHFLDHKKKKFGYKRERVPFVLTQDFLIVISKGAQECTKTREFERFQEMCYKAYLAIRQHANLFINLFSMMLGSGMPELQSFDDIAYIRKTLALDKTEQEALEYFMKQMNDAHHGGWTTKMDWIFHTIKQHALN
T1 sequence (P27986 whole entry partner): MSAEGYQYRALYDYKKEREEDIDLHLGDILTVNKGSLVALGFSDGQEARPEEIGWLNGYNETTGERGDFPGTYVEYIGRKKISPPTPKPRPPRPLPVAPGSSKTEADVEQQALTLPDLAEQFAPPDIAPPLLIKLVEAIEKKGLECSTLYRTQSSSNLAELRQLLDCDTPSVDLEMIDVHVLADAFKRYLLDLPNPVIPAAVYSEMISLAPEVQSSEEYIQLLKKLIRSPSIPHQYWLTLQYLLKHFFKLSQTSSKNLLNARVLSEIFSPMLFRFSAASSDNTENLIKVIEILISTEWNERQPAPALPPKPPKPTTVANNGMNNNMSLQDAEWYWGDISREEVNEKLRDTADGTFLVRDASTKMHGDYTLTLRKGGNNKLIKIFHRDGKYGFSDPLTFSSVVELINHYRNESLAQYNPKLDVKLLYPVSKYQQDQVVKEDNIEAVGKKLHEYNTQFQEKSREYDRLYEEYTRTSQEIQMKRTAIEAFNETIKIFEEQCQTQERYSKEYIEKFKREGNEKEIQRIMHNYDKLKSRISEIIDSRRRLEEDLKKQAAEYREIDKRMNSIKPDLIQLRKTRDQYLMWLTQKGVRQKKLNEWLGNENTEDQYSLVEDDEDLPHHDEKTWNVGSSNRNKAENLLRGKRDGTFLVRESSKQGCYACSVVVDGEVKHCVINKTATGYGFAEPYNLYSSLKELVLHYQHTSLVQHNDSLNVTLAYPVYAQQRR

## O=c1cc(N2CCOCC2)oc2c(-c3ccccc3)cccc12 [LY294002]
Human tumor xenografts
  tolerability: well-tolerated

## CN(C)C(=O)N1CCC(Oc2nc(-c3cccc4[nH]ncc34)nc(N3CCOCC3)n2)CC1 [Compound 1126, 4-14-{[4-1-(1H-indazol-4-yl)-6-5-(morpholin-4-yl)-1,3,5-triazin-2-yl]oxy}-N,N-dimethylpiperidine-1-carboxamide]
PI3K alpha
  IC50: < 5 µM
[1]
  AUC: 1618 nM-hr
  Cmax: 535 nM
  Elimination t1/2: 3.15 h
  Tmax: 0.83 h

## CNC(=O)c1ccc(Oc2nc(-c3cccc4[nH]ncc34)nc(N3CCOCC3)n2)cc1 [Compound 1113, 4-14-{[4-1-(1H-indazol-4-yl)-6-5-(morpholin-4-yl)-1,3,5-triazin-2-yl]oxy}-N-methylbenzamide]
[1]; mouse
  Cmax: 1240 nM
[1]; mouse, read-out: AUC
  AUC: 5.25 µM·h
[1]; mouse, read-out: Elimination t1/2 (converted)
  half-life: 4.86 h
[1]; mouse, read-out: Tmax
  Tmax: 1 h

## CN(C)C(=O)N1CCC(Oc2nc(-c3cccc4[nH]ncc34)nc(N3CCOCC3)n2)C1 (centres unmarked) [Compound 1108, 3-14-{[4-1-(1H-indazol-4-yl)-6-5-(morpholin-4-yl)-1,3,5-triazin-2-yl]oxy}-N,N-dimethylpyrrolidine-1-carboxamide]
PI3K alpha
  IC50: < 5 µM

## Cc1cc(Oc2nc(-c3ccc(N)nc3)nc(N3CCOCC3)n2)ccc1C(=O)N(C)C [Compound 1021, 4-20-{[4-1-(6-16-aminopyridin-3-yl)-6-5-(morpholin-4-yl)-1,3,5-triazin-2-yl]oxy}-N,N,2-trimethylbenzamide]
PI3K alpha
  IC50: < 5 µM

## CN(C)C(=O)c1cccc(Nc2nc(-c3cnc(N)nc3)nc(N3CCOCC3)n2)c1 [Compound 1040, 3-((4-(2-aminopyrimidin-5-yl)-6-morpholino-1,3,5-triazin-2-yl)amino)-N,N-dimethylbenzamide]
PI3K alpha
  IC50: < 5 µM

## CN(C)C(=O)[C@H]1CC[C@H](Oc2nc(-c3cccc4[nH]ncc34)nc(N3CCOCC3)n2)CC1 [Compound 1144, (1r,4r)-4-21-{[4-1-(1H-indazol-4-yl)-6-5-(morpholin-4-yl)-1,3,5-triazin-2-yl]oxy}-N,N-dimethylcyclohexane-1-carboxamide]
PI3K alpha
  IC50: < 5 µM
[1]
  AUC: 5849 nM-hr
  Cmax: 1660 nM
  Elimination t1/2: 4.34 h
  Tmax: 1.33 h

## NC(=O)Cc1cccc(Nc2nc(-c3cccc4[nH]ncc34)nc(N3CCOCC3)n2)c1 [Compound 1195, 2-(3-((4-(1H-indazol-4-yl)-6-morpholino-1,3,5-triazin-2-yl)amino)phenyl)acetamide]
PI3K alpha
  IC50: < 5 µM

## O=C(O)CNc1nc(-c2cccc(C(=O)O)c2)nc(N2CCOCC2)n1 [Compound 1161, 3-6-{4-1-[(carboxymethyl)amino]-6-2-(morpholin-4-yl)-1,3,5-triazin-2-yl}benzoic acid]
PI3K alpha
  IC50: > 5 µM

## NC(=O)c1cccc(Nc2nc(-c3cnc(N)nc3)nc(N3CCOCC3)n2)c1 [Compound 1046, 3-((4-(2-aminopyrimidin-5-yl)-6-morpholino-1,3,5-triazin-2-yl)amino)benzamide]
PI3K alpha
  IC50: < 5 µM

## CN(C)C(=O)c1ccc(Oc2nc(-c3ccc4[nH]ccc4c3)nc(N3CCOCC3)n2)cc1 [Compound 1052, 4-14-{[4-1-(1H-indol-5-yl)-6-5-(morpholin-4-yl)-1,3,5-triazin-2-yl]oxy}-N,N-dimethylbenzamide]
PI3K alpha
  IC50: < 5 µM

## Nc1ncc(-c2nc(Nc3nccs3)nc(N3CCOCC3)n2)s1 [Compound 1007, N-(4-(2-aminothiazol-5-yl)-6-morpholino-1,3,5-triazin-2-yl)thiazol-2-amine]
PI3K alpha
  IC50: < 5 µM

## NS(=O)(=O)N[C@H]1CC[C@H](Oc2nc(-c3cccc4[nH]ncc34)nc(N3CCOCC3)n2)CC1 [Compound 1094, N-[(1r,4r)-4-9-{[4-1-(1H-indazol-4-yl)-6-5-(morpholin-4-yl)-1,3,5-triazin-2-yl]oxy}cyclohexyl]aminosulfonamide]
PI3K alpha
  IC50: < 5 µM

## CNC(=O)c1ccc(C)c(Nc2nc(-c3cccc4[nH]ncc34)nc(N3CCOCC3)n2)c1 [Compound 1177, 3-((4-(1H-indazol-4-yl)-6-morpholino-1,3,5-triazin-2-yl)amino)-N,4-dimethylbenzamide]
PI3K alpha
  IC50: < 5 µM

## CS(=O)(=O)N1CCC(COc2nc(-c3ccc(N)nc3)nc(N3CCOCC3)n2)CC1 [Compound 1023, 5-(4-((1-(methylsulfonyl)piperidin-4-yl)methoxy)-6-morpholino-1,3,5-triazin-2-yl)pyridin-2-amine]
PI3K alpha
  IC50: < 5 µM

## COC1CN(c2nc(Oc3ccc(C(=O)N(C)C)cc3)nc(-c3cccc4[nH]ncc34)n2)C1 [Compound 1075, 4-9-{[4-1-(1H-indazol-4-yl)-6-5-(3-29-methoxyazetidin-1-yl)-1,3,5-triazin-2-yl]oxy}-N,N-dimethylbenzamide]
PI3K alpha
  IC50: > 5 µM

## CN(C)C(=O)c1cccc(Nc2nc(-c3cccc4[nH]ncc34)nc(N3CCOCC3)n2)c1 [Compound 1190, 3-((4-(1H-indazol-4-yl)-6-morpholino-1,3,5-triazin-2-yl)amino)-N,N-dimethylbenzamide]
PI3K alpha
  IC50: < 5 µM

## CN(C)C(=O)C(=O)N[C@H]1CC[C@H](Oc2nc(-c3cccc4[nH]ncc34)nc(N3CCOCC3)n2)CC1 [Compound 1125, N,N-dimethyl-N′-[(1r,4r)-4-9-{[4-1-(1H-indazol-4-yl)-6-5-(morpholin-4-yl)-1,3,5-triazin-2-yl]oxy}cyclohexyl]ethanediamide]
PI3K alpha
  IC50: < 5 µM

## CN(C)C(=O)CNc1nc(-c2cccc(C(N)=O)c2)nc(N2CCOCC2)n1 [Compound 1122, 3-12-(4-0-{[(dimethylcarbamoyl)methyl]amino}-6-4-(morpholin-4-yl)-1,3,5-triazin-2-yl)benzamide]
PI3K alpha
  IC50: > 5 µM

## CN(C)C(=O)c1ccc(Nc2nc(-c3ccc(N)nc3)nc(N3CCOCC3)n2)cc1 [Compound 1065, 4-((4-(6-aminopyridin-3-yl)-6-morpholino-1,3,5-triazin-2-yl)amino)-N,N-dimethylbenzamide]
PI3K alpha
  IC50: < 5 µM

## O=C(c1cccc(Nc2nc(-c3cccc4[nH]ncc34)nc(N3CCOCC3)n2)c1)N1CCNCC1 [Compound 1171, (3-((4-(1H-indazol-4-yl)-6-morpholino-1,3,5-triazin-2-yl)amino)phenyl)(piperazin-1-yl)methanone]
PI3K alpha
  IC50: < 5 µM

Source: US9481670B2, “Triazine compounds” (Sphaera Pharma PTE. Ltd., priority 2011, dated 2016)
